target: truncated form of human NaV 1.8 with full channel activity (Homo sapiens, UniProt Q9Y5Y9); assay: E-VIPR Assay Method A for detecting and measuring Nav inhibition (HEK cells, membrane potential FRET dyes, electrical stimulation); format: cell-based; details: HEK cells expressing human NaV 1.8, HS (human serum) in compound loading buffer, 11 point dose response, top dose 3 μM, Table 20A, read-out: Nav 1.8 MedChem Optical Assay EVIPR Assay Method A HS IC50
In short: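 HEK cells expressing truncated human NaV1.8, loaded with CC2-DMPE/DiSBAC6(3) FRET dyes, incubated 30 min at room temp with compound (0.625% DMSO), then electrically stimulated (1.25 A biphasic, 10 Hz, 10 s). Inhibition from 460/580 nm ratio Rf/Ri, normalised to positive and DMSO controls.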

Sequence of truncated form of human NaV 1.8 with full channel activity (Q9Y5Y9 126-1722 limits assumed): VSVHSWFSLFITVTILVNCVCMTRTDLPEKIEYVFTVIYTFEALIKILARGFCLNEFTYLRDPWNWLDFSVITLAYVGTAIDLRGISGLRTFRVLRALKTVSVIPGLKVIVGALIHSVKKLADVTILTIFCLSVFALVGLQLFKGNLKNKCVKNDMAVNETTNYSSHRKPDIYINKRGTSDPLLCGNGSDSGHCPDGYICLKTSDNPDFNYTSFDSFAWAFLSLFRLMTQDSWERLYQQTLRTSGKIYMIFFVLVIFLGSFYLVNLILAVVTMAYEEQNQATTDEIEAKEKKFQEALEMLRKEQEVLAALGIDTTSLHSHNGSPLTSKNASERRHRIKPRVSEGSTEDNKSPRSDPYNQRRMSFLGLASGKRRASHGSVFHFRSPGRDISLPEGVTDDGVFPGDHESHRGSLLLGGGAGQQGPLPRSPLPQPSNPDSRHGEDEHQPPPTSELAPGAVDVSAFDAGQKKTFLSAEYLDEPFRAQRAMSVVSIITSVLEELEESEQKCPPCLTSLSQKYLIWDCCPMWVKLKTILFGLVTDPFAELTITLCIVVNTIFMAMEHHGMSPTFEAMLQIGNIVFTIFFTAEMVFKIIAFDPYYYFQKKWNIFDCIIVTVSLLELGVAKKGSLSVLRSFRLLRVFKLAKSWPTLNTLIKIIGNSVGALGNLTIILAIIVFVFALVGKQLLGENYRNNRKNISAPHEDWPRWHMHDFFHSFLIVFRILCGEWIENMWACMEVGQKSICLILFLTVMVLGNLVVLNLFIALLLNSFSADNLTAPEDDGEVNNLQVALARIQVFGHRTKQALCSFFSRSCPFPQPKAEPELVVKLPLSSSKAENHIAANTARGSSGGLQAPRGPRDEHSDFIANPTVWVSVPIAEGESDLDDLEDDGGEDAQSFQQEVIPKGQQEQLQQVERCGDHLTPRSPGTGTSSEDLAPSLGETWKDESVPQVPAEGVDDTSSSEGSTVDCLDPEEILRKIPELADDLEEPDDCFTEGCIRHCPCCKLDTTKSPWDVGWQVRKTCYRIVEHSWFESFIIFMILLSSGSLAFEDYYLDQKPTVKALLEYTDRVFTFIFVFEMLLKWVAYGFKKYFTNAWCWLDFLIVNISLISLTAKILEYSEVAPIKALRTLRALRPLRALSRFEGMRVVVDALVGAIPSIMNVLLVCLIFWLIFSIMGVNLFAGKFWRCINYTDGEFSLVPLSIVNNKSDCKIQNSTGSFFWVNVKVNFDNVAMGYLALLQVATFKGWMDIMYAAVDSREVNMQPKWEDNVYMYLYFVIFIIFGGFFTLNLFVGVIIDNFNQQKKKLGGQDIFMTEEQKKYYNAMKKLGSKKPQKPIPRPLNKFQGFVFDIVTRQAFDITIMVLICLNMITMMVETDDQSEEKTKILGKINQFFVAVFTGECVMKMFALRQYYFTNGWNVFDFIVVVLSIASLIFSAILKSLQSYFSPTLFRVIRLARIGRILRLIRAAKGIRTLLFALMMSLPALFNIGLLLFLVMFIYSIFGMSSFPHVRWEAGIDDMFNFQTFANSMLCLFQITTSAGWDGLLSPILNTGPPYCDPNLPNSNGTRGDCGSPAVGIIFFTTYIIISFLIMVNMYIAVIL

`COc1cc(OC(F)(F)F)ccc1Oc1ccc(C(F)(F)F)c(OC)c1C(=O)Nc1ccc(C(N)=O)nc1` [Compound 202, 5-[[2-Methoxy-6-[2-methoxy-4-(trifluoromethoxy)phenoxy]-3-(trifluoromethyl)benzoyl]amino]pyridine-2-carboxamide] and `COc1cc(OC(F)(F)F)ccc1Oc1cnc(C(F)(F)F)c(OC)c1C(=O)Nc1ccc(C(N)=O)nc1` [Compound 203, N-(6-Carbamoyl-3-pyridyl)-3-methoxy-5-[2-methoxy-4-(trifluoromethoxy)phenoxy]-2-(trifluoromethyl)pyridine-4-carboxamide] are within 1.5-fold of each other in IC50: 40 nM for the first, 46 nM for the second.

First: COc1cc(OC(F)(F)F)ccc1Oc1cc(Cl)cc(OC)c1C(=O)Nc1ccc(C(N)=O)nc1 [Compound 204, 5-[[4-Chloro-2-methoxy-6-[2-methoxy-4-(trifluoromethoxy)phenoxy]benzoyl]amino]pyridine-2-carboxamide]
Second: COc1cc(OC(F)(F)F)ccc1Oc1cc(Cl)c(C)c(F)c1C(=O)Nc1cc(C(N)=O)ncc1C [Compound 211, 4-[[4-Chloro-2-fluoro-6-[2-methoxy-4-(trifluoromethoxy)phenoxy]-3-methyl-benzoyl]amino]-5-methyl-pyridine-2-carboxamide]
The IC50 of the first is 100-fold higher: 600 nM for the first, 6 nM for the second.

Compared with `COc1cc(OC(F)(F)F)ccc1Oc1ccc(C(F)(F)F)c(OC)c1C(=O)Nc1ccc(C(N)=O)cn1` [Compound 205, 6-[[2-Methoxy-6-[2-methoxy-4-(trifluoromethoxy)phenoxy]-3-(trifluoromethyl)benzoyl]amino]pyridine-3-carboxamide], `[2H]C([2H])([2H])Oc1cc(OC(F)(F)F)ccc1Oc1ccc(C(F)(F)F)c(F)c1C(=O)Nc1ccc(C(N)=O)cn1` [Compound 212, 6-[[2-Fluoro-6-[2-(trideuteriomethoxy)-4-(trifluoromethoxy)phenoxy]-3-(trifluoromethyl)benzoyl]amino]pyridine-3-carboxamide] is 2.8-fold lower in IC50: 150 nM for the first, 54 nM for the second. The second is the more potent here.

First: CCOc1c(C(F)(F)F)ncc(Oc2ccc(OC(F)(F)F)cc2OC)c1C(=O)Nc1ccnc(C(N)=O)c1 [Compound 206, N-(2-Carbamoyl-4-pyridyl)-3-ethoxy-5-[2-methoxy-4-(trifluoromethoxy)phenoxy]-2-(trifluoromethyl)pyridine-4-carboxamide]
Second: CCOc1c(C(F)(F)F)ncc(Oc2ccc(OC(F)(F)F)cc2OC)c1C(=O)Nc1cc(C(N)=O)ncc1C [Compound 210, N-(2-Carbamoyl-5-methyl-4-pyridyl)-3-ethoxy-5-[2-methoxy-4-(trifluoromethoxy)phenoxy]-2-(trifluoromethyl)pyridine-4-carboxamide]
The IC50 of the first is 3.1-fold lower: 45 nM for the first, 140 nM for the second.

Compared with `COc1cc(OC(F)(F)F)ccc1Oc1ccc(C(F)(F)F)c(F)c1C(=O)Nc1ccnc(C(N)=O)n1` [Compound 207, 4-[[2-Fluoro-6-[2-methoxy-4-(trifluoromethoxy)phenoxy]-3-(trifluoromethyl)benzoyl]amino]pyrimidine-2-carboxamide], `NC(=O)c1cc(NC(=O)c2c(Oc3ccc(OC(F)(F)F)cc3O)ccc(C(F)(F)F)c2F)ccn1` [Compound 214, 4-[[2-Fluoro-6-[2-hydroxy-4-(trifluoromethoxy)phenoxy]-3-(trifluoromethyl)benzoyl]amino]pyridine-2-carboxamide] is 24-fold higher in IC50: 27 nM for the first, 660 nM for the second.

First: NC(=O)c1cc(NC(=O)c2c(Oc3ccc(F)cc3OC(F)F)ccc(C(F)(F)F)c2F)ccn1 [Compound 208, 4-[[6-[2-(Difluoromethoxy)-4-fluoro-phenoxy]-2-fluoro-3-(trifluoromethyl)benzoyl]amino]pyridine-2-carboxamide]
Second: [2H]C([2H])([2H])Oc1c(Oc2ccc(C(F)(F)F)c(F)c2C(=O)Nc2ccnc(C(N)=O)c2)ccc(OC(F)(F)F)c1F [Compound 218, 4-[[2-Fluoro-6-[3-fluoro-2-(trideuteriomethoxy)-4-(trifluoromethoxy)phenoxy]-3-(trifluoromethyl)benzoyl]amino]pyridine-2-carboxamide]
The IC50 of the first is 6.5-fold higher: 13 nM for the first, 2 nM for the second.

`[2H]C([2H])([2H])Oc1cc(OC(F)(F)F)ccc1Oc1ccc(C(F)(F)F)c(F)c1C(=O)Nc1ccc(C(=O)NC)nc1` [Compound 209, 5-[[2-fluoro-6-[2-(trideuteriomethoxy)-4-(trifluoromethoxy)phenoxy]-3-(trifluoromethyl)benzoyl]amino]-N-methyl-pyridine-2-carboxamide] and `[2H]C([2H])([2H])Oc1c(Oc2ccc(C(F)(F)F)c(F)c2C(=O)Nc2ccc(C(=O)NC)nc2)ccc(OC(F)(F)F)c1F` [Compound 229, 5-[[2-Fluoro-6-[3-fluoro-2-(trideuteriomethoxy)-4-(trifluoromethoxy)phenoxy]-3-(trifluoromethyl)benzoyl]amino]-N-methyl-pyridine-2-carboxamide] are within 1.5-fold of each other in IC50: 50 nM for the first, 47 nM for the second.

First: [2H]c1cc(F)c(C(N)=O)cc1NC(=O)c1c(Oc2c([2H])cc(OC(F)(F)F)c([2H])c2[2H])ccc(C(F)(F)F)c1F [Compound 213, N-(5-Carbamoyl-2-deuterio-4-fluoro-phenyl)-2-fluoro-6-[2,3,6-trideuterio-4-(trifluoromethoxy)phenoxy]-3-(trifluoromethyl)benzamide]
Second: COc1c(Oc2ccc(C(F)(F)F)c(F)c2C(=O)Nc2ccc(F)c(C(N)=O)c2)ccc(OC(F)(F)F)c1F [Compound 219, N-(3-Carbamoyl-4-fluoro-phenyl)-2-fluoro-6-[3-fluoro-2-methoxy-4-(trifluoromethoxy)phenoxy]-3-(trifluoromethyl)benzamide]
The IC50 of the first is 10-fold higher: 9 nM for the first, 0.9 nM for the second. The second is the more potent here.

Compared with `NC(=O)c1cc(NC(=O)c2c(Oc3ccc(OC(F)(F)F)cc3)cc(OCc3ccccc3)c(C(F)(F)F)c2F)ccc1F` [Compound 215, 4-Benzyloxy-N-(3-carbamoyl-4-fluoro-phenyl)-2-fluoro-6-[4-(trifluoromethoxy)phenoxy]-3-(trifluoromethyl)benzamide], `NC(=O)c1cc(NC(=O)c2c(F)c(C(F)(F)F)cc(OCc3ccccc3)c2Oc2ccc(OC(F)(F)F)cc2)ccc1F` [Compound 217, 5-Benzyloxy-N-(3-carbamoyl-4-fluoro-phenyl)-2-fluoro-6-[4-(trifluoromethoxy)phenoxy]-3-(trifluoromethyl)benzamide] is 61-fold higher in IC50: 18 nM for the first, 1100 nM for the second.

Going from `COc1cc(Oc2ccc(OC(F)(F)F)cc2)c(C(=O)Nc2ccc(F)c(C(N)=O)c2)c(F)c1C(F)(F)F` [Compound 216, N-(3-Carbamoyl-4-fluoro-phenyl)-2-fluoro-4-methoxy-6-[4-(trifluoromethoxy)phenoxy]-3-(trifluoromethyl)benzamide] to `[2H]C([2H])([2H])Oc1c(Oc2ccc(C(F)(F)F)c(F)c2C(=O)Nc2ccc(C(N)=O)nc2)ccc(OC(F)(F)F)c1F` [Compound 221, 5-[[2-Fluoro-6-[3-fluoro-2-(trideuteriomethoxy)-4-(trifluoromethoxy)phenoxy]-3-(trifluoromethyl)benzoyl]amino]pyridine-2-carboxamide], the IC50 rises from 8 nM to 14 nM (1.8-fold). The first is the more potent here.

Going from `[2H]C([2H])([2H])Oc1c(Oc2ccc(Cl)c(F)c2C(=O)Nc2ccnc(C(N)=O)c2)ccc(OC(F)(F)F)c1F` [Compound 220, 4-[[3-Chloro-2-fluoro-6-[3-fluoro-2-(trideuteriomethoxy)-4-(trifluoromethoxy)phenoxy]benzoyl]amino]pyridine-2-carboxamide] to `[2H]C([2H])([2H])Oc1c(Oc2ccc(OC(F)(F)F)c(F)c2C(=O)Nc2ccnc(C(N)=O)c2)ccc(OC(F)(F)F)c1F` [Compound 225, 4-[[2-Fluoro-6-[3-fluoro-2-(trideuteriomethoxy)-4-(trifluoromethoxy)phenoxy]-3-(trifluoromethoxy)benzoyl]amino]pyridine-2-carboxamide], the IC50 falls from 5 nM to 3 nM (1.7-fold). The second is the more potent here.

Compared with `[2H]C([2H])([2H])Oc1c(Oc2cc(Cl)c(C([2H])([2H])[2H])c(F)c2C(=O)Nc2ccnc(C(N)=O)c2)ccc(OC(F)(F)F)c1F` [Compound 222, 4-[[4-Chloro-2-fluoro-6-[3-fluoro-2-(trideuteriomethoxy)-4-(trifluoromethoxy)phenoxy]-3-(trideuteriomethyl)benzoyl]amino]pyridine-2-carboxamide], `[2H]C([2H])([2H])Oc1c(Oc2cc(Cl)cc(Cl)c2C(=O)Nc2ccnc(C(N)=O)c2)ccc(OC(F)(F)F)c1F` [Compound 224, 4-[[2,4-Dichloro-6-[3-fluoro-2-(trideuteriomethoxy)-4-(trifluoromethoxy)phenoxy]benzoyl]amino]pyridine-2-carboxamide] is 3-fold higher in IC50: 3 nM for the first, 9 nM for the second. The first is the more potent here.

`[2H]C([2H])([2H])Oc1c(Oc2cc(C(F)(F)F)cc(F)c2C(=O)Nc2ccnc(C(N)=O)c2)ccc(OC(F)(F)F)c1F` [Compound 223, 4-[[2-Fluoro-6-[3-fluoro-2-(trideuteriomethoxy)-4-(trifluoromethoxy)phenoxy]-4-(trifluoromethyl)benzoyl]amino]pyridine-2-carboxamide] and `[2H]C([2H])([2H])Oc1c(Oc2ccc(C(F)(F)F)c(F)c2C(=O)Nc2ccnc(C(=O)NC)c2)ccc(OC(F)(F)F)c1F` [Compound 228, 4-[[2-Fluoro-6-[3-fluoro-2-(trideuteriomethoxy)-4-(trifluoromethoxy)phenoxy]-3-(trifluoromethyl)benzoyl]amino]-N-methyl-pyridine-2-carboxamide] are within 1.5-fold of each other in IC50: 8 nM for the first, 7 nM for the second.

Going from `[2H]C([2H])([2H])Oc1c(Oc2ccc(C(F)(F)F)c(F)c2C(=O)Nc2cc(C(N)=O)ncc2C)ccc(OC(F)(F)F)c1F` [Compound 227, 4-[[2-Fluoro-6-[3-fluoro-2-(trideuteriomethoxy)-4-(trifluoromethoxy)phenoxy]-3-(trifluoromethyl)benzoyl]amino]-5-methyl-pyridine-2-carboxamide] to `[2H]C([2H])([2H])Oc1c(Oc2ccc(OC(F)(F)F)c(NC)c2C(=O)Nc2ccnc(C(=O)NC)c2)ccc(OC(F)(F)F)c1F` [Compound 230, 4-[[6-[3-Fluoro-2-(trideuteriomethoxy)-4-(trifluoromethoxy)phenoxy]-2-(methylamino)-3-(trifluoromethoxy)benzoyl]amino]-N-methyl-pyridine-2-carboxamide], the IC50 rises from 2 nM to 250 nM (120-fold). The first is the more potent here.

From patent US12281057B2 (VERTEX PHARMACEUTICALS INCORPORATED, priority 2017, dated 2025)
